Experimental findings from paper PMC8911752, “The Synthesis and Initial Evaluation of MerTK Targeted PET Agents” (Molecules, 2022) are described below.

Each structure is given as a SMILES string.

Common to all, as to type: biochemical
Test [1] addresses T1, MerTK (Homo sapiens, UniProt Q12866).
T1 sequence (Q12866 21-999): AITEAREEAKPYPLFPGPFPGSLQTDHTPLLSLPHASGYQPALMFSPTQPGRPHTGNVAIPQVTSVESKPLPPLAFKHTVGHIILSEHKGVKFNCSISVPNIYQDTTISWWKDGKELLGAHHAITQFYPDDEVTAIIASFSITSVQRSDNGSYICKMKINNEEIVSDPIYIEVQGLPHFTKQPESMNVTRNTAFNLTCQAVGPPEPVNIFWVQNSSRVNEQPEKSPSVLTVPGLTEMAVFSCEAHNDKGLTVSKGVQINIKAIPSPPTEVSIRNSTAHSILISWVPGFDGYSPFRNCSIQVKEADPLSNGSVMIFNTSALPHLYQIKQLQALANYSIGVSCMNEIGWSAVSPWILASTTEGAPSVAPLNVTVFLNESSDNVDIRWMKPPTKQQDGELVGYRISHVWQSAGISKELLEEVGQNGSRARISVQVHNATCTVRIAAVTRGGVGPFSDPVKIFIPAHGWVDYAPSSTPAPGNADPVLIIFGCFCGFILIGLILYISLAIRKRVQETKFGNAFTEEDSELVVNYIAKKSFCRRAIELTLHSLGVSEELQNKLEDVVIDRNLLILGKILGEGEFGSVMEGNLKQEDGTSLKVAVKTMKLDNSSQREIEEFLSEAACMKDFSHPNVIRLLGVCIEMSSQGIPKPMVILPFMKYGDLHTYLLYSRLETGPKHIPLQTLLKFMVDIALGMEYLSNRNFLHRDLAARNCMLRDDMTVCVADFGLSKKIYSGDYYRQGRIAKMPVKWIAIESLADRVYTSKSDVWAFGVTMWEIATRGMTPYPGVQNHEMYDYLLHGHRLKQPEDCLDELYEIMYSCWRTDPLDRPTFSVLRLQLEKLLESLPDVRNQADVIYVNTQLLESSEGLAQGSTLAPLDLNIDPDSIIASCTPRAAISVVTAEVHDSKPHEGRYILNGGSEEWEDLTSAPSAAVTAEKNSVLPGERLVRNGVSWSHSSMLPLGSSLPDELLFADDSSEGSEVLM
Kind of test: Microcapillary electrophoresis (MCE) kinase assay, MerTK. Particulars: for IC50: MCE assay, ATP at Km, mean of two or more independent assays; for selectivity over Axl, Tyro3 and Flt3: MerTK versus Axl, Tyro3, Flt3 in MCE assays. The protocol:
(§1) The inhibitory activities of standards towards MerTK, Axl, Tyro3 and Flt3 were determined in our in-house microcapillary electrophoresis (MCE) assays.
(§2) Microcapillary Electrophoresis (MCE) Assays were performed with literature method. […] All reactions were terminated by addition of 20 µL of 70 mM EDTA. After an 180 min incubation, phosphorylated and unphosphorylated substrate peptides (Table 2) were separated in buffer supplemented with 1 x CR-8 on a LabChip EZ Reader equipped with a 12-sipper chip. Data were analyzed using EZ Reader software.

The target in test [2] is T2, Axl (Homo sapiens, UniProt P30530).
T2 sequence (P30530 26-894): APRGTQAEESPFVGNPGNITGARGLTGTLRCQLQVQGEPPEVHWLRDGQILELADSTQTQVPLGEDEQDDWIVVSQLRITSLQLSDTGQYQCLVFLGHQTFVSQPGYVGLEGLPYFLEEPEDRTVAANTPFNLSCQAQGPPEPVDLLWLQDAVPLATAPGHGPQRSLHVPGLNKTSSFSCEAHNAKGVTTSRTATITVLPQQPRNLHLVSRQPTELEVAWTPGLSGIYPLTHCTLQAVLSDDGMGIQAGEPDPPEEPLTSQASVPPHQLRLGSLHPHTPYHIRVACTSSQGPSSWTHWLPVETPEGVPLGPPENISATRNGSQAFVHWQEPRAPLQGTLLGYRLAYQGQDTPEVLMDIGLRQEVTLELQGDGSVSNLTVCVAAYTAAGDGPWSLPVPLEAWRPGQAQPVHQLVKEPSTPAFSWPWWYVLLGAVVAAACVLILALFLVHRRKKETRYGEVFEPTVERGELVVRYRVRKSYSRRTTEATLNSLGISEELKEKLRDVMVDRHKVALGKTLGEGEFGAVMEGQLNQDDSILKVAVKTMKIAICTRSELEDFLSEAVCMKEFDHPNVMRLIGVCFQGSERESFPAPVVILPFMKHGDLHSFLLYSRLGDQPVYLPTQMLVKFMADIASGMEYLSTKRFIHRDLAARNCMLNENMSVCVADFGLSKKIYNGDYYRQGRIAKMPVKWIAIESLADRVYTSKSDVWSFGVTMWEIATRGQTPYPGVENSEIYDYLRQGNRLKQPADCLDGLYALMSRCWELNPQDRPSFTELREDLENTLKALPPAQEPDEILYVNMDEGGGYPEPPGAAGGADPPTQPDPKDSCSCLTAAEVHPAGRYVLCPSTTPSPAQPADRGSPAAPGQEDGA
The experiment in a line: Microcapillary electrophoresis (MCE) kinase assay, Axl. Particulars: ATP at Km, mean of two or more independent assays. On the procedure: as §1, §2

For test [3], the target named is T3, Tyro3 (Homo sapiens, UniProt Q06418).
T3 sequence (Q06418 41-890): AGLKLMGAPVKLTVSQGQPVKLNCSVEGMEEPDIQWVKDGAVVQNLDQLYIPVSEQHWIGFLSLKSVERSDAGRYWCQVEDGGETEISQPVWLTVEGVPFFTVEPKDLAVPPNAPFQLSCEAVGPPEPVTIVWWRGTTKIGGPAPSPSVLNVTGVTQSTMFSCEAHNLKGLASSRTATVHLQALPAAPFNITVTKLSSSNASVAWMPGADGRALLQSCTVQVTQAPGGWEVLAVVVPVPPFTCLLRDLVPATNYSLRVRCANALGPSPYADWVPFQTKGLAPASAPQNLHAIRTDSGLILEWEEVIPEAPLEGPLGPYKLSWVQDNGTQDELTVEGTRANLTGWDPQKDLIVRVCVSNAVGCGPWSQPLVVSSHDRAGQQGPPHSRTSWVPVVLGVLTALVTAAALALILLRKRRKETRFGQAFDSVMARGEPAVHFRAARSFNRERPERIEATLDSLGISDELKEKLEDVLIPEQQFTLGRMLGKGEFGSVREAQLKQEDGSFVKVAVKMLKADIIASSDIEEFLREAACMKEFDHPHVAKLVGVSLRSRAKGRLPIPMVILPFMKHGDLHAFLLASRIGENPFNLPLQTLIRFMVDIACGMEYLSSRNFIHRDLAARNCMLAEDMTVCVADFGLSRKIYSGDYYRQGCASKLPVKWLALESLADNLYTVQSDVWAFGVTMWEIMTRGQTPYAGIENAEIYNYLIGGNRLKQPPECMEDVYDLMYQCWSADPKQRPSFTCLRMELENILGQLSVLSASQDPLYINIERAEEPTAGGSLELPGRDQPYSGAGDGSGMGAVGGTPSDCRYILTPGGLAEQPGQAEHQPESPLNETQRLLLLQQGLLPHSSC
Kind of test: Microcapillary electrophoresis (MCE) kinase assay, Tyro3. Particulars: ATP at Km, mean of two or more independent assays. The protocol: as §1, §2

Consider `C[C@H](Nc1ncc2c(C3CCN(C)CC3)cn([C@H]3CC[C@H](O)CC3)c2n1)c1ccccc1` [MerTK-2], for which the figures for the IC50 in test [1], in test [2] and in test [3] were 61 nM, 1700 nM and 180 nM, respectively. Moreover, in test [1], the “selectivity over Axl, Tyro3 and Flt3” value is given as “Good selectivity”.
Regarding `C[C@H](Nc1ncc2c(C3CCN(C(=S)Nc4ccc(CC5CN(CC(=O)O)CCN(CC(=O)O)CCN5CC(=O)O)cc4)CC3)cn([C@H]3CC[C@H](O)CC3)c2n1)c1ccccc1` (stereo partly drawn) [MerTK-4], the IC50 – broadly, the point on the concentration scale where inhibition reaches its midpoint – worked out at 13 nM in test [1], 4100 nM in test [2] and 180 nM in test [3].
`CCC[C@H](C)Nc1ncc2c(C3CCN(CCF)CC3)cn([C@H]3CC[C@H](O)CC3)c2n1` [MerTK-5]: the IC50 in test [1] was determined as 15 nM; in test [2], 1100 nM; in test [3] it was 190 nM. The “selectivity over Axl, Tyro3 and Flt3” value in test [1] was “good selectivity”.
For the compound `C[C@H](Nc1ncc2c(C3CCN(CCF)CC3)cn([C@H]3CC[C@H](O)CC3)c2n1)c1ccccc1` [MerTK-6], the IC50 in test [1] came out at 37 nM; in test [2] it was 2100 nM; in test [3], 120 nM. For the same compound, the “selectivity over Axl, Tyro3 and Flt3” value in test [1] is given as “good selectivity”.
